For 27 molecules, IC50 results are on record in patent US20130217664A1, “NOVEL COMPOUNDS USEFUL FOR THE TREATMENT OF DEGENERATIVE AND INFLAMMATORY DISEASES” (priority 2012, published 2013).

Assay [1] deals with T1, human JAK2 (Homo sapiens, UniProt O60674).
T1 construct: catalytic domain (amino acids 808-1132; catalog number PV4210); GST; purchased Invitrogen PV4210
As to the kind of experiment: JAK2 inhibition assay (polyGT substrate / Ulight-JAK1 peptide). To be noted: recombinant human JAK2 catalytic domain; polyGT or Ulight-JAK1 peptide assay. Type of assay: biochemical. The procedure: 1.2 JAK2 Inhibition Assay
1.2.1 JAK2 Assay polyGT Substrate
0.025 mU of JAK2 is incubated with 2.5 μg polyGT substrate (Sigma catalog number P0275) in kinase reaction buffer (5 mM MOPS pH 7.5, 9 mM MgAc, 0.3 mM EDTA, 0.06% Brij and 0.6 mM DTT, 1 μM non-radioactive ATP, 0.25 μCi ^33P-gamma-ATP (GE Healthcare, catalog number AH9968) final concentrations) with or without 5 μL containing test compound or vehicle (DMSO, 1% final concentration), in a total volume of 25 μL, in a polypropylene 96-well plate (Greiner, V-bottom). After 90 min at 30° C., reactions are stopped by adding of 25 μL/well of 150 mM phosphoric acid. […] Plates are washed 6 times with 300 μL per well of a 75 mM phosphoric acid solution and the bottom of the plates is sealed. 40 μL/well of Microscint-20 is added, the top of the plates is sealed and readout is performed using the Topcount (Perkin Elmer). Kinase activity is calculated by subtracting counts per min (cpm) obtained in the presence of a positive control inhibitor (10 μM staurosporine) from cpm obtained in the presence of vehicle. The ability of a test compound to inhibit this activity is determined as:
Percentage inhibition=((cpm determined for sample with test compound present−cpm determined for sample with positive control inhibitor)divided by(cpm determined in the presence of vehicle−cpm determined for sample with positive control inhibitor))*100.
Dose dilution series are prepared for the compounds enabling the testing of dose-response effects in the JAK2 assay and the calculation of the IC50 for each compound.
1.2.2 JAK2 Ulight-JAK1 Peptide Assay
After 60 min at room temperature, reactions were stopped by adding 20 μL/well of detection mixture (1× detection buffer (Perkin Elmer, catalog number CR97-100C), 0.5 nM Europium-anti-phosphotyrosine (PT66) (Perkin Elmer, catalog number AD0068), 10 mM EDTA). […] Kinase activity was calculated by subtracting relative fluorescence units (RFU) obtained in the presence of a positive control inhibitor (10 μM staurosporine) from RFU obtained in the presence of vehicle. The ability of a test compound to inhibit this activity was determined as:
Percentage inhibition=((RFU determined for sample with test compound present−RFU determined for sample with positive control inhibitor)divided by(RFU determined in the presence of vehicle−RFU determined for sample with positive control inhibitor))*100.
Dose dilution series are prepared for compound enabling the testing of dose-response effects in the JAK2 assay and the calculation of the IC50 for the compound. Each compound is routinely tested at concentration of 20 μM followed by a 1/5 serial dilution, 10 points in a final concentration of 1% DMSO. […] The data are expressed as the average IC50 from the assays±standard error of the mean.

Assay [2] deals with T2, human JAK1 (Homo sapiens, UniProt P23458).
T2 construct: catalytic domain, amino acids 866-1154; catalog number PV4774; purchased Invitrogen PV4774
T2 sequence (P23458 866-1154): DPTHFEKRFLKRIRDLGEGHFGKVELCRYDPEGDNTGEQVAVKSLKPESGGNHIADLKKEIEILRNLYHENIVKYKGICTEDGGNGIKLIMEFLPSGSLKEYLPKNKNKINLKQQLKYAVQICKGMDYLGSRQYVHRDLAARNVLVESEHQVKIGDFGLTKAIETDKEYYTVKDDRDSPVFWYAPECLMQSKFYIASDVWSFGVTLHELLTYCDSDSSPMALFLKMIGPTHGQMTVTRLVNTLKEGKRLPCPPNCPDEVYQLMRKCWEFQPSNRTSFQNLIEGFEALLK
In words: JAK1 inhibition assay (polyGT substrate / Ulight-JAK1 peptide). The settings on record: recombinant human JAK1 catalytic domain; polyGT or Ulight-JAK1 peptide assay. Type of assay: biochemical. The method, boiled down:
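Signal scaled between vehicle and 10 μM staurosporine. Radiometric polyGT reactions ran 45 min at 30 °C, counted after phosphoric-acid stop. Ulight peptide reactions ran 60 min at room temperature, fluorescence read after adding Eu-PT66 detection mix with EDTA.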

SMILES strings stand for the structures. Bounds are passed on as bounds.

T1 sequence (O60674 808-1132): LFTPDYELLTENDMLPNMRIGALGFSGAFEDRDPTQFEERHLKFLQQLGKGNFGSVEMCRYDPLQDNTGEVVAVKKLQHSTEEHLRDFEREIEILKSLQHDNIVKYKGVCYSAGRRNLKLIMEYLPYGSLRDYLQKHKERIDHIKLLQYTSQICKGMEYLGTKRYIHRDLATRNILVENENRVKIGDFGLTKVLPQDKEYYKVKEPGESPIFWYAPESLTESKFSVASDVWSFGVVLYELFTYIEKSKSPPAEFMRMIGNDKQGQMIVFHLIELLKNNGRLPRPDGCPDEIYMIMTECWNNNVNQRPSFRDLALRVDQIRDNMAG

As usually defined, the IC50 is the midpoint of a concentration-inhibition curve. Take `CCN(c1ccc2c(ccn2C)c1)c1cc2c(cn1)ncn2C` [Compound 8, N-ethyl-1-methyl-N-(1-methyl-1H-indol-5-yl)-1H-imidazo[4,5-c]pyridin-6-amine]: the values for the half-maximal inhibitory concentration (IC50) in assay [1] and in assay [2] were 101 to 500 nM and above 1000 nM, respectively.
Take `CCc1cc(C(=O)N2CC(C)(C)C2)ccc1N(C)c1cc2c(cn1)ncn2C` [Compound 113, (3,3-dimethylazetidin-1-yl)(3-ethyl-4-(methyl(1-methyl-1H-imidazo[4,5-c]pyridin-6-yl)amino)phenyl)methanone]: the concentration for half-maximal inhibition (IC50) in assay [1] and in assay [2] was above 1000 nM in each case.
On to `CCN(c1cccc(Oc2ccccc2)c1)c1cc2c(cn1)ncn2C` [Compound 11, N-ethyl-1-methyl-N-(3-phenoxyphenyl)-1H-imidazo[4,5-c]pyridin-6-amine], for which the results for the IC50 in assay [1] and in assay [2] were above 1000 nM and 101 to 500 nM, respectively.
For `Cc1c(OCC(C)C)cccc1N(C)c1cc2c(cn1)ncn2C` [Compound 70, N-(3-isobutoxy-2-methylphenyl)-N,1-dimethyl-1H-imidazo[4,5-c]pyridin-6-amine], in that order: 501 to 1000 nM and 101 to 500 nM.
For `Cc1cc(OCc2ccc(Cl)cc2)ccc1N(C)c1cc2c(cn1)ncn2C` [Compound 54, N-(4-(4-chlorobenzyloxy)-2-methylphenyl)-N,1-dimethyl-1H-imidazo[4,5-c]pyridin-6-amine], in that order: above 1000 nM and 501 to 1000 nM.
For `CCc1ccc(C(N)=O)cc1N(C)c1cc2c(cn1)ncn2C` [Compound 108, 4-ethyl-3-(methyl(1-methyl-1H-imidazo[4,5-c]pyridin-6-yl)amino)benzamide], the concentration for half-maximal inhibition (IC50) is above 1000 nM in assay [1] and 101 to 500 nM in assay [2].
For the molecule `Cc1ccc(OCC(=O)N(C)C)cc1N(C)c1cc2c(cn1)ncn2C` [Compound 59, N,N-dimethyl-2-(4-methyl-3-(methyl(1-methyl-1H-imidazo[4,5-c]pyridin-6-yl)amino)phenoxy)acetamide], the figures for the IC50 in assay [1] and in assay [2] were above 1000 nM and 101 to 500 nM, respectively.
On the same counts, the results for `Cc1cc(Oc2ccc(C#N)nc2)ccc1N(C)c1cc2c(cn1)ncn2C` [Compound 88, 5-(3-methyl-4-(methyl(1-methyl-1H-imidazo[4,5-c]pyridin-6-yl)amino)phenoxy)picolino-nitrile] are above 1000 nM and 101 to 500 nM.
For `COc1ccc(Cc2ccc(N(C)c3cc4c(cn3)ncn4C)c(C)c2)cc1` [Compound 74, N-(4-(4-methoxybenzyl)-2-methylphenyl)-N,1-dimethyl-1H-imidazo[4,5-c]pyridin-6-amine], in that order: above 1000 nM and 501 to 1000 nM.
Consider `CCc1ccc(C(=O)Nc2cccnc2)cc1N(C)c1cc2c(cn1)ncn2C` [Compound 124, 4-ethyl-3-(methyl(1-methyl-1H-imidazo[4,5-c]pyridin-6-yl)amino)-N-(pyridin-3-yl)benzamide], for which the IC50 in assay [1] is above 1000 nM; in assay [2], 101 to 500 nM.
On the same counts, the results for `CCc1ccc(COC)cc1N(C)c1cc2c(cn1)ncn2C` [Compound 122, N-(2-Ethyl-5-(methoxymethyl)phenyl)-N,1-dimethyl-1H-imidazo[4,5-c]pyridin-6-amine] are above 1000 nM and 101 to 500 nM.
On the same counts, the results for `CCc1cc(C(=O)N2CCC(N(C)C)C2)ccc1N(C)c1cc2c(cn1)ncn2C` (stereo not drawn) [Compound 106, (3-(dimethylamino)pyrrolidin-1-yl)(3-ethyl-4-(methyl(1-methyl-1H-imidazo[4,5-c]pyridin-6-yl)amino)phenyl)methanone] are above 1000 nM and above 1000 nM.
For `COc1ccc(N(C)c2cc3c(cn2)ncn3C)c(C)c1` [Compound 45, N-(4-Methoxy-2-methylphenyl)-N,1-dimethyl-1H-imidazo[4,5-c]pyridin-6-amine], in that order: above 1000 nM and 101 to 500 nM.
On to `CCc1ccc(C(=O)NC)cc1N(C)c1cc2c(cn1)ncn2C` [Compound 128, 4-ethyl-N-methyl-3-(methyl(1-methyl-1H-imidazo[4,5-c]pyridin-6-yl)amino)benzamide], for which the values for the 50% inhibitory concentration (IC50) in assay [1] and in assay [2] were above 1000 nM and 101 to 500 nM, respectively.
For `CN(c1cc2c(cn1)ncn2C)c1ccccc1OC(F)(F)F` [Compound 49, N,1-dimethyl-N-(2-(trifluoromethoxy)phenyl)-1H-imidazo[4,5-c]pyridin-6-amine], in that order: above 1000 nM and 501 to 1000 nM.
For `CCCOc1ccc(N(C)c2cc3c(cn2)ncn3C)cc1` [Compound 22, N,1-dimethyl-N-(4-propoxyphenyl)-1H-imidazo[4,5-c]pyridin-6-amine], in that order: 501 to 1000 nM and 101 to 500 nM.
For `CCc1ncccc1N(C)c1cc2c(cn1)ncn2C` [Compound 79, N-(2-ethylpyridin-3-yl)-N,1-dimethyl-1H-imidazo[4,5-c]pyridin-6-amine], in that order: above 1000 nM and above 1000 nM.
On to `CCc1cc(C(=O)N2CCS(=O)(=O)CC2)ccc1N(C)c1cc2c(cn1)ncn2C` [Compound 104, (1,1-Dioxothiomorpholin-4-yl)-{3-ethyl-4-[methyl-(1-methyl-1H-imidazo[4,5-c]pyridin-6-yl)-amino]-phenyl}-methanone], for which the half-maximal inhibitory concentration (IC50) in assay [1] and in assay [2] was above 1000 nM each time.
`Cc1cc(OCc2ccccc2)ccc1N(C)c1cc2c(cn1)ncn2C` [Compound 53, N-(4-(benzyloxy)-2-methylphenyl)-N,1-dimethyl-1H-imidazo[4,5-c]pyridin-6-amine]: the half-maximal inhibitory concentration (IC50) in assay [1] is above 1000 nM; in assay [2], 101 to 500 nM.
Regarding `CN(c1ccc(OCCO)cc1)c1cc2c(cn1)ncn2C` [Compound 19, 2-(4-(methyl(1-methyl-1H-imidazo[4,5-c]pyridin-6-yl)amino)phenoxy)ethanol], the IC50 in assay [1] is above 1000 nM; in assay [2], 101 to 500 nM.
For `Cc1c(OCc2ccccc2)cccc1N(C)c1cc2c(cn1)ncn2C` [Compound 75, N-(3-(benzyloxy)-2-methylphenyl)-N,1-dimethyl-1H-imidazo[4,5-c]pyridin-6-amine], in that order: 501 to 1000 nM and 501 to 1000 nM.
On the same counts, the results for `CN(c1ccc(OCC2CCCO2)cc1)c1cc2c(cn1)ncn2C` (stereo not drawn) [Compound 18, N,1-dimethyl-N-(4-((tetrahydrofuran-2-yl)methoxy)phenyl)-1H-imidazo[4,5-c]pyridin-6-amine] are above 1000 nM and 501 to 1000 nM.
As to `CCc1ccc(C(=O)NCCOC)cc1N(C)c1cc2c(cn1)ncn2C` [Compound 116, 4-Ethyl-N-(2-methoxyethyl)-3-(methyl(1-methyl-1H-imidazo[4,5-c]pyridin-6-yl)amino)benzamide], the 50% inhibitory concentration (IC50) in assay [1] is above 1000 nM; in assay [2] it was 101 to 500 nM.
On the same counts, the results for `Cc1cc(OCCN2CCCC2)ccc1N(C)c1cc2c(cn1)ncn2C` [Compound 52, N,1-dimethyl-N-(2-methyl-4-(2-(pyrrolidin-1-yl)ethoxy)phenyl)-1H-imidazo[4,5-c]pyridin-6-amine] are above 1000 nM and 501 to 1000 nM.
On the same counts, the results for `CCc1ccc(C(=O)NCc2ccccn2)cc1N(C)c1cc2c(cn1)ncn2C` [Compound 125, 4-ethyl-3-(methyl(1-methyl-1H-imidazo[4,5-c]pyridin-6-yl)amino)-N-(pyridin-2-ylmethyl)benzamide] are above 1000 nM and 101 to 500 nM.
Turning to `CC(C)CCOc1ccc(N(C)c2cc3c(cn2)ncn3C)cc1` [Compound 21, N-(4-(isopentyloxy)phenyl)-N,1-dimethyl-1H-imidazo[4,5-c]pyridin-6-amine], the IC50 in assay [1] was above 1000 nM; in assay [2] it was 501 to 1000 nM.
For `CN(c1cc2c(cn1)ncn2C)c1ccccc1C(F)(F)F` [Compound 36, N,1-dimethyl-N-(2-(trifluoromethyl)phenyl)-1H-imidazo[4,5-c]pyridin-6-amine], in that order: above 1000 nM and above 1000 nM.
